Experimental data reported in patent publication US6417199B1, “3-benzyl-benzothiophenes” (Eli Lilly and Company, priority 1995, dated 2002).

Key:
[1] = test system: MCF-7 breast adenocarcinoma cells; experiment: MCF-7 Proliferation Assay; type: cell-based; settings: Homo sapiens, MCF7; MCF-7 cells, 48 hours with drug, tritiated thymidine incorporation; read-out: ED50 (the source's name)
Protocol: MCF-7 breast adenocarcinoma cells (ATCC HTB 22) were maintained in MEM (minimal essential medium, phenol red-free, Sigma, St. Louis, Mo.) supplimented with 10% fetal bovine serum (FBS) (V/V), L-glutamine (2 mM), sodium pyruvate (1 mM), HEPES {(N-[2-hydroxyethyl]piperazine-N′-[2-ethanesulfonic acid]10 mM}, non-essential amino acids and bovine insulin (1 ug/mL) (maintenance medium). Ten days prior to assay, MCF-7 cells were switched to maintenance medium supplemented with 10% dextran coated charcoal stripped fetal bovine serum (DCC-FBS) assay medium) in place of 10% FBS to deplete internal stores of steroids. MCF-7 cells were removed from maintenance flasks using cell dissociation medium (Ca++/Mg++ free HBSS (phenol red-free) supplemented with 10 mM HEPES and 2 mM EDTA). Cells were say medium and adjusted to 80,000 cells/mL. Approximately 100 μL (8,000 cells) were added to flat-bottom microculture wells (Costar 3596) and incubated at 37° C. in a 5% CO2 humidified incubator for 48 hours to allow for cell adherence and equilbration after transfer. Serial dilutions of drugs or DSMO as a diluent control were prepared in assay medium and 50 μL transferred to triplicate microcultures followed by 50 μL assay medium for a final volume of 200 μL. After an additional 48 hours at 37° C. in a 5% CO2 humidified incubator, microcultures were pulsed with tritiated thymidine (1 uCi/well) for 4 hours. Cultures were terminated by freezing at −70° C. for 24 hours followed by thawing and harvesting of microcultures using a Skatron Semiautomatic Cell Harvester. Samples were counted by liquid scintillation using a Wallac BetaPlace β counter. Results in Table 2 below show the ED50 for certain compounds of the present invention.

[2] = test system: Serum Cholesterol; experiment: Serum cholesterol in ovariectomized rat post-menopausal model; type: in vivo, Sprague Dawley rats; settings: ovariectomized rats, dosed orally daily for 4 days; for ED50: Rattus norvegicus, po, 96 h
Protocol: In the examples illustrating the methods, a post-menopausal model was used in which effects of different treatments upon circulating lipids were determined.
Seventy-five day old female Sprague Dawley rats (weight range of 200 to 225 g) are obtained from Charles River Laboratories (Portage, Mich.). The animals are either bilaterally ovariectomized (OVX) or exposed to a Sham surgical procedure at Charles River Laboratories, and then shipped after one week. Upon arrival, they are housed in metal hanging cages in groups of 3 or 4 per cage and had ad libitum access to food (calcium content approximately 0.5%) and water for one week. Room temperature is maintained at 22.2°±1.7° C. with a minimum relative humidity of 40%. The photoperiod in the room was 12 hours light and 12 hours dark.
Dosing Reaimen Tissue Collection. After a one week acclimation period (therefore, two weeks post-OVX) daily dosing with test compound is initiated. 17α-ethynyl estradiol or the test compound is given orally, unless otherwise stated, as a suspension in 1% carboxymethylcellulose or dissolved in 20% cyclodextrin. Animals are dosed daily for 4 days. Following the dosing regimen, animals are weighed and anesthetized with a ketamine: xylazine (2:1, V:V) mixture and a blood sample is collected by cardiac puncture. The animals are then sacrificed by asphyxiation with CO2, the uterus is removed through a midline incision, and a wet uterine weight is determined.
Cholesterol Analysis. Blood samples are allowed to clot at room temperature for 2 hours, and serum is obtained following centrifugation for 10 minutes at 3000 rpm. Serum cholesterol is determined using a Boehringer Mannheim Diagnostics high performance cholesterol assay. Briefly the cholesterol is oxidized to cholest-4-en-3-one and hydrogen peroxide. The hydrogen peroxide is then reacted with phenol and 4-aminophenazone in the presence of peroxidase to produce a p-quinone imine dye, which is read spectrophotemetrically at 500 nm. Cholesterol concentration is then calculated against a standard curve. The entire assay is automated using a Biomek Automated Workstation.
Data presented in Table 1 below show results when rats were treated with certain compounds of the present invention. The compounds of the present invention generally reduce serum cholesterol compared to the ovariectomized control animals.

COC(c1ccc(OCCN2CCCCC2)cc1)c1c(-c2ccc(O)cc2)sc2cc(O)ccc12 (centres unmarked) [Example 1]
EC50 [1]: 0.8 nM | ED50 [2]: 3.5 mg/kg

CCOC(c1ccc(OCCN2CCCCC2)cc1)c1c(-c2ccc(O)cc2)sc2cc(O)ccc12 (centres unmarked) [Example 2]
EC50 [1]: 3 nM | ED50 [2]: 10 mg/kg

CCCOC(c1ccc(OCCN2CCCCC2)cc1)c1c(-c2ccc(O)cc2)sc2cc(O)ccc12 (centres unmarked) [Example 3]
EC50 [1]: 2 nM | ED50 [2]: 10 mg/kg

CC(C)OC(c1ccc(OCCN2CCCCC2)cc1)c1c(-c2ccc(O)cc2)sc2cc(O)ccc12 (centres unmarked) [Example 4]
EC50 [1]: 10 nM | ED50 [2]: 4.1 mg/kg

CCCCOC(c1ccc(OCCN2CCCCC2)cc1)c1c(-c2ccc(O)cc2)sc2cc(O)ccc12 (centres unmarked) [Example 5]
EC50 [1]: 1.5 nM | ED50 [2]: 2.5 mg/kg

Oc1ccc(C2Sc3cc(O)ccc3C2C(OCc2ccccc2)c2ccc(OCCN3CCCCC3)cc2)cc1 (centres unmarked) [Example 6]
EC50 [1]: 0.5 nM | ED50 [2]: 10 mg/kg

N#CCCOC(c1ccc(OCCN2CCCCC2)cc1)c1c(-c2ccc(O)cc2)sc2cc(O)ccc12 (centres unmarked) [Example 7]
EC50 [1]: 7 nM | ED50 [2]: 2.4 mg/kg

OCCOC(c1ccc(OCCN2CCCCC2)cc1)c1c(-c2ccc(O)cc2)sc2cc(O)ccc12 (centres unmarked) [Example 8]
EC50 [1]: 20 nM | ED50 [2]: 2.9 mg/kg

CSC(c1ccc(OCCN2CCCCC2)cc1)c1c(-c2ccc(O)cc2)sc2cc(O)ccc12 (centres unmarked) [Example 9]
EC50 [1]: 3 nM | ED50 [2]: 5.1 mg/kg

CCSC(c1ccc(OCCN2CCCCC2)cc1)c1c(-c2ccc(O)cc2)sc2cc(O)ccc12 (centres unmarked) [Example 10]
EC50 [1]: 1.2 nM | ED50 [2]: 1.7 mg/kg

CN(C)C(c1ccc(OCCN2CCCCC2)cc1)c1c(-c2ccc(O)cc2)sc2cc(O)ccc12 (centres unmarked) [Example 11]
EC50 [1]: 20 nM | ED50 [2]: 0.1 mg/kg

CNC(c1ccc(OCCN2CCCCC2)cc1)c1c(-c2ccc(O)cc2)sc2cc(O)ccc12 (centres unmarked) [Example 12]
EC50 [1]: 4 nM | ED50 [2]: 0.8 mg/kg

N#CC(c1ccc(OCCN2CCCCC2)cc1)c1c(-c2ccc(O)cc2)sc2cc(O)ccc12 (centres unmarked) [Example 13]
EC50 [1]: 0.8 nM | ED50 [2]: 0.8 mg/kg

NC(c1ccc(OCCN2CCCCC2)cc1)c1c(-c2ccc(O)cc2)sc2cc(O)ccc12 (centres unmarked) [Example 14]
EC50 [1]: 6 nM | ED50 [2]: 5.7 mg/kg

CCN(CC)C(c1ccc(OCCN2CCCCC2)cc1)c1c(-c2ccc(O)cc2)sc2cc(O)ccc12 (centres unmarked) [Example 15]
EC50 [1]: 7 nM | ED50 [2]: 3.8 mg/kg

Oc1ccc(-c2sc3cc(O)ccc3c2C(c2ccc(OCCN3CCCCC3)cc2)N2CCCC2)cc1 (centres unmarked) [Example 16]
EC50 [1]: 15 nM | ED50 [2]: 10 mg/kg

Oc1ccc(-c2sc3cc(O)ccc3c2C(c2ccc(OCCN3CCCCC3)cc2)N2CCCCCC2)cc1 (centres unmarked) [Example 17]
EC50 [1]: 30 nM | ED50 [2]: 10 mg/kg

OCCNC(c1ccc(OCCN2CCCCC2)cc1)c1c(-c2ccc(O)cc2)sc2cc(O)ccc12 (centres unmarked) [Example 18]
EC50 [1]: 90 nM | Serum Cholesterol ED50 (mg/kg) [2]: N.A. at 10.0;

Oc1ccc(-c2sc3cc(O)ccc3c2C(NN2CCCCC2)c2ccc(OCCN3CCCCC3)cc2)cc1 (centres unmarked) [Example 20]
EC50 [1]: 7 nM | ED50 [2]: 10 mg/kg
